Measured values reported in publication PMC7571145, “Multistep Synthesis and In Vitro Anticancer Evaluation of 2-Pyrazolyl-Estradiol Derivatives, Pyrazolocoumarin-Estradiol Hybrids and Analogous Compounds” (Molecules, 2020).
Read-outs that look alike come from different tables or passages of the source. One block for each compound: values may come before it.

Legend:
MRC-5 fibroblasts = test: MTT cytotoxicity assay on non-cancerous MRC-5 fibroblasts; assay type: cell-based; settings: for primary growth inhibitory screen, cell viability, MRC-5 / effect on non-cancerous fibroblasts: 2.5 µM; for primary growth inhibitory screen, cell viability, MRC-5 / IC50: MTT; for primary growth inhibitory screen, cell viability, MRC-5: mean±SD, untreated control about 100; for effect on non-cancerous fibroblasts: based on the heat map; for IC50: mean ± SD
Method: (§1) Cytotoxicity screens were performed to assess the in vitro anticancer activity of the synthesized A-ring-linked 2-pyrazoles of estradiol, the pyrazolocoumarin-estradiol hybrids, and their structurally simplified non-steroidal analogs on various cancerous cell lines such as MCF-7, PC-3, DU145, and HeLa and on non-cancerous MRC-5 fibroblasts. The 2-acetyl-phenol starting materials (4, 5, and 15) were also included for comparison. All compounds were applied in 2.5 µM concentration for 72 h. The obtained cell viability data were used to construct a heat map (Figure 2) in order to select compounds that exert cancer cell line-specific cytotoxicity. […] Furthermore, some compounds discriminated only DU145 cells and could eliminate these type of prostate cancer cells.
(§2) To understand structure-function relationships, we also included the structural analogs of the selected compounds, namely 7a (C-17 acetate of 8a), 8c (C-17 OH counterpart of 7c), and 9a (steroidal pair of 19a) into subsequent analyses. […] For this, compounds were applied on MCF-7, PC-3, DU145, and HeLa and on non-cancerous MRC-5 fibroblasts in various concentrations for 72 h or were treated with cisplatin at different concentrations. On the viability data, dose–response curves were fitted (Figure S1) and IC50 values were calculated accordingly (Table 3). In agreement with the primary cytotoxicity screen (Table S1), the obtained IC50 concentrations clearly indicated which compound was selectively effective on one or more cancer cell lines. […] Typically, acetylated steroidal pyrazoles were less favorable than deacetylated counterparts due to reduced cancer cell selectivity (7c, 10a).
(§3) To evaluate the in vitro pharmacological effects of the synthesized molecules, each compound was first dissolved in cell culture grade DMSO (Sigma) to a final concentration of 10 mM. Using MTT colorimetric assay, the cytotoxicity of these compounds was evaluated on cancerous (MCF-7, HeLa, DU145, PC-3) and non-cancerous (MRC-5) cell lines. Briefly, 5000 cells/well of each cell line were seeded in 96-well plates and were left to grow overnight in a 5% CO2 atmosphere at 37 °C. On the next day, cells were treated with each derivative separately, in case of the primary screen, or only with the selected compounds upon IC50 determination. Cells were incubated with the test compounds for 72 h in a 5% CO2 atmosphere at 37 °C. End point was measured by incubating cells for 1 h with 0.5 mg/mL of MTT reagent (Serva) dissolved in serum free culture medium. The formazan crystals formed by metabolically active cells were later dissolved in DMSO. Optical density of the obtained solutions was measured at 570 nm using a Synergy HTX plate reader. […] The analysis and conclusions were made based on three independent experiments. Normalized data were analyzed and the heat map was constructed using GraphPad Prism 7 software.

PC-3 cells = test: MTT cytotoxicity assay on PC-3 prostate cancer cells; assay type: cell-based; settings: for primary growth inhibitory screen, cell viability, PC-3: 2.5 µM, 72 h, mean±SD, untreated control about 100; for IC50: mean ± SD
Method: as §1, §2, §3

DU145 cells = test: MTT cytotoxicity assay on DU145 prostate cancer cells; assay type: cell-based; settings: for primary growth inhibitory screen, cell viability, DU145: 2.5 µM, 72 h, mean±SD, untreated control about 100; for IC50: mean ± SD
Method: as §1, §2, §3

MCF-7 cells = test: MTT cytotoxicity assay on MCF-7 cells; assay type: cell-based; settings: for primary growth inhibitory screen, cell viability, MCF-7: 2.5 µM, 72 h, mean±SD, untreated control about 100; for IC50: mean ± SD
Method: as §1, §2, §3

HeLa cells = test: MTT cytotoxicity assay on HeLa cells; assay type: cell-based; settings: for primary growth inhibitory screen, cell viability, HeLa: 2.5 µM, mean±SD, untreated control about 100; for IC50: mean ± SD
Method: as §1, §2, §3

[1] = Homo sapiens, MRC5, 72 h, compounds 1-7 µM, read-out: IC50 on MRC-5
[2] = Homo sapiens, PC-3, 72 h, compounds 1-7 µM, read-out: IC50 on PC-3
[3] = Homo sapiens, DU-145, 72 h, compounds 1-7 µM, read-out: IC50 on DU145
[4] = Homo sapiens, MCF7, 72 h, compounds 1-7 µM, read-out: IC50 on MCF-7
[5] = Homo sapiens, HeLa, 72 h, compounds 1-7 µM, read-out: IC50 on HeLa

SMILES: C[C@]12CC[C@@H]3c4cc(-c5nn(-c6ccccc6)cc5C=O)c(O)cc4CC[C@H]3[C@@H]1CC[C@@H]2O [Compound 8a, 2-(4′-Formyl-1′-phenyl-1′H-pyrazol-3′-yl)-estra-1,3,5(10)-trien-3,17β-diol]
primary growth inhibitory screen, cell viability, MRC-5 (MRC-5 fibroblasts; 72 h): 99.9±3.3 | effect on non-cancerous fibroblasts (MRC-5 fibroblasts; 72 h): no or very mild effect | IC50 (MRC-5 fibroblasts; [1]): 5.12 ± 1 µM | primary growth inhibitory screen, cell viability, PC-3 (PC-3 cells): 54.9±3.0 | IC50 (PC-3 cells; [2]): 3.05 ± 1 µM | primary growth inhibitory screen, cell viability, DU145 (DU145 cells): 108.8±4.1 | IC50 (DU145 cells; [3]): 6.46 ± 1 µM | primary growth inhibitory screen, cell viability, MCF-7 (MCF-7 cells): 100.9±4.8 | IC50 (MCF-7 cells; [4]): 5.03 ± 1 µM | primary growth inhibitory screen, cell viability, HeLa (HeLa cells; 72 h): 100.4±1.6 | IC50 (HeLa cells; [5]): 4.09 ± 1 µM | melting point: 172 to 174 °C

melting point: 135 to 137 °C
SMILES: OCc1cn(-c2ccccc2)nc1-c1cc2c(cc1O)CCCC2 [Compound 18a, 3-(4′-(Hydroxymethyl)-1′-phenyl-1′H-pyrazol-3′-yl)-5,6,7,8-tetrahydro-2-naphthol]
primary growth inhibitory screen, cell viability, MRC-5 (MRC-5 fibroblasts; 72 h): ≥ 100±0.1 | primary growth inhibitory screen, cell viability, PC-3 (PC-3 cells): 91.5±12.9 | primary growth inhibitory screen, cell viability, DU145 (DU145 cells): 87.0±18.2 | primary growth inhibitory screen, cell viability, MCF-7 (MCF-7 cells): 98.0±7.1 | primary growth inhibitory screen, cell viability, HeLa (HeLa cells; 72 h): ≥ 100±6.5

SMILES: C[C@]12CC[C@@H]3c4cc(-c5nn(-c6ccccc6)cc5CO)c(O)cc4CC[C@H]3[C@@H]1CC[C@@H]2O [Compound 11a]
primary growth inhibitory screen, cell viability, MRC-5 (MRC-5 fibroblasts; 72 h): ≥ 100±8.2 | effect on non-cancerous fibroblasts (MRC-5 fibroblasts; 72 h): no or very mild effect | IC50 (MRC-5 fibroblasts; [1]): > 7 µM | primary growth inhibitory screen, cell viability, PC-3 (PC-3 cells): 59.7±3.2 | IC50 (PC-3 cells; [2]): 2.9 ± 1.3 µM | primary growth inhibitory screen, cell viability, DU145 (DU145 cells): 98.2±5.4 | IC50 (DU145 cells; [3]): > 7 µM | primary growth inhibitory screen, cell viability, MCF-7 (MCF-7 cells): 93.4±3.7 | IC50 (MCF-7 cells; [4]): 6.8 ± 1 µM | primary growth inhibitory screen, cell viability, HeLa (HeLa cells; 72 h): 75.4±1.1 | IC50 (HeLa cells; [5]): 4.3 ± 1 µM | melting point: 141 to 143 °C

SMILES: CC(=O)O[C@H]1CC[C@H]2[C@@H]3CCc4cc(O)c(-c5nn(-c6ccccc6)cc5C=O)cc4[C@H]3CC[C@]12C [Compound 7a, 2-(4′-Formyl-1′-phenyl-1′H-pyrazol-3′-yl)-estra-1,3,5(10)-triene-3,17β-diol-17-acetate]
primary growth inhibitory screen, cell viability, MRC-5 (MRC-5 fibroblasts; 72 h): ≥ 100±5.7 | IC50 (MRC-5 fibroblasts; [1]): 5.9 ± 1 µM | primary growth inhibitory screen, cell viability, PC-3 (PC-3 cells): 87.8±7.1 | IC50 (PC-3 cells; [2]): 3.63 ± 1 µM | primary growth inhibitory screen, cell viability, DU145 (DU145 cells): 108.7±9.1 | IC50 (DU145 cells; [3]): 6.93 ± 1 µM | primary growth inhibitory screen, cell viability, MCF-7 (MCF-7 cells): 98.6±5.2 | IC50 (MCF-7 cells; [4]): 4.49 ± 1 µM | primary growth inhibitory screen, cell viability, HeLa (HeLa cells; 72 h): 102.7±2.7 | IC50 (HeLa cells; [5]): 4.18 ± 1 µM | melting point: 230 to 232 °C

melting point: 151 to 153 °C
SMILES: Cc1ccc(-n2cc(C=O)c(-c3cc4c(cc3O)CCCC4)n2)cc1 [Compound 17b, 3′-(3-Hydroxy-5,6,7,8-tetrahydronaphthalen-2-yl)-1′-(4″-tolyl)-1′H-pyrazole-4′-carbaldehyde]
primary growth inhibitory screen, cell viability, MRC-5 (MRC-5 fibroblasts; 72 h): ≥ 100±14.5 | primary growth inhibitory screen, cell viability, PC-3 (PC-3 cells): ≥ 100±3.0 | primary growth inhibitory screen, cell viability, DU145 (DU145 cells): ≥ 100±16.8 | primary growth inhibitory screen, cell viability, MCF-7 (MCF-7 cells): 93.2±6.0 | primary growth inhibitory screen, cell viability, HeLa (HeLa cells; 72 h): ≥ 100±3.9

SMILES: CC(=O)O[C@H]1CC[C@H]2[C@@H]3CCc4cc(O)c(-c5nn(-c6ccc(Cl)cc6)cc5C=O)cc4[C@H]3CC[C@]12C [Compound 7c, 2-(1′-(4″-Chlorophenyl)-4′-formyl-1′H-pyrazol-3′-yl)-estra-1,3,5(10)-triene-3,17β-diol-17-acetate]
primary growth inhibitory screen, cell viability, MRC-5 (MRC-5 fibroblasts; 72 h): 78.9±4.3 | effect on non-cancerous fibroblasts (MRC-5 fibroblasts; 72 h): no or very mild effect | IC50 (MRC-5 fibroblasts; [1]): 4.76 ± 1.1 µM | primary growth inhibitory screen, cell viability, PC-3 (PC-3 cells): 36.0±4.5 | IC50 (PC-3 cells; [2]): 2.14 ± 1.1 µM | primary growth inhibitory screen, cell viability, DU145 (DU145 cells): 70.4±3.6 | IC50 (DU145 cells; [3]): 3.37 ± 1 µM | primary growth inhibitory screen, cell viability, MCF-7 (MCF-7 cells): 57.4±10.6 | IC50 (MCF-7 cells; [4]): 1.99 ± 1.1 µM | primary growth inhibitory screen, cell viability, HeLa (HeLa cells; 72 h): 94.1±1.9 | IC50 (HeLa cells; [5]): 5.32 ± 1.1 µM | melting point: 268 to 270 °C

SMILES: N.N.[Cl][Pt][Cl] [cisplatin, reference compound]
IC50 (MRC-5 fibroblasts; cisplatin applied for 24 h, 20-330 µM, read-out: IC50 on MRC-5 (positive control)): 34.3 ± 1.02 µM | IC50 (PC-3 cells; cisplatin applied for 24 h, 20-330 µM, read-out: IC50 on PC-3 (positive control)): > 330 µM | IC50 (DU145 cells; cisplatin applied for 24 h, 20-330 µM, read-out: IC50 on DU145 (positive control)): 116.1 ± 1.06 µM | IC50 (MCF-7 cells; cisplatin applied for 24 h, 20-330 µM, read-out: IC50 on MCF-7 (positive control)): > 330 µM | IC50 (HeLa cells; cisplatin applied for 24 h, 20-330 µM, read-out: IC50 on HeLa (positive control)): 297.1 ± 1.02 µM
